# In US11856974B2, “Highly soluble stevia sweetener” (PureCircle Sdn Bhd, priority 2011, dated 2024):
# Where two headings read alike, the source gives them in different places.
# Assays:
# [1] = background description of Rebaudioside A forms, % = grams soluble in 100 grams of solvent, cited from earlier work
# [2] = cited from earlier work
# [3] = Solubility comparison of spray dried amorphous powder samples; type: physicochemical; settings: room temperature
# Protocol: Hereinafter, unless specified otherwise, the solubility of material is determined in RO (reverse osmosis) water at room temperature. Where the solubility is expressed as “%” it to be understood as number of grams of material soluble in 100 grams of solvent.
# [4] = Solubility in RO water at room temperature; type: physicochemical; settings: % = grams soluble in 100 grams of solvent
# Protocol: Hereinafter, unless specified otherwise, the solubility of material is determined in RO (reverse osmosis) water at room temperature.
Observation (solubility) ([3]; at 5% in water),Observation (solubility) ([3]; at 10% in water),Observation (solubility) ([3]; at 20% in water),Observation (solubility) ([3]; at 30% in water),SMILES,Rate of dissolution in H2O at 25° C. ([2]; grade in words),also measured
–,–,–,–,"C=C1C[C@@]23CC[C@H]4[C@@](C)(CCC[C@@]4(C)C(=O)O[C@@H]4O[C@H](CO)[C@@H](O)[C@H](O)[C@H]4O)[C@@H]2CC[C@]1(O[C@@H]1O[C@H](CO)[C@@H](O)[C@H](O[C@@H]2O[C@H](CO)[C@@H](O)[C@H](O)[C@H]2O)[C@H]1O[C@@H]1O[C@H](CO)[C@@H](O)[C@H](O)[C@H]1O)C3 [Crystalline Rebaudioside A, Rebaudioside A]",–,solubility [1]: 1%-2%
–,–,–,–,"C=C1C[C@@]23CC[C@H]4[C@@](C)(CCC[C@@]4(C)C(=O)O[C@@H]4O[C@H](CO)[C@@H](O)[C@H](O)[C@H]4O)[C@@H]2CC[C@]1(O[C@@H]1O[C@H](CO)[C@@H](O)[C@H](O[C@@H]2O[C@H](CO)[C@@H](O)[C@H](O)[C@H]2O)[C@H]1O[C@@H]1O[C@H](CO)[C@@H](O)[C@H](O)[C@H]1O)C3 [Form 1, Rebaudioside A]",Very low,Rate of dissolution in H2O at 25° C. ([2]; in 60 minutes): (<0.2% in 60; solubility ([1]; listed as hydrate form): less than 0.2%
–,–,–,–,"C=C1C[C@@]23CC[C@H]4[C@@](C)(CCC[C@@]4(C)C(=O)O[C@@H]4O[C@H](CO)[C@@H](O)[C@H](O)[C@H]4O)[C@@H]2CC[C@]1(O[C@@H]1O[C@H](CO)[C@@H](O)[C@H](O[C@@H]2O[C@H](CO)[C@@H](O)[C@H](O)[C@H]2O)[C@H]1O[C@@H]1O[C@H](CO)[C@@H](O)[C@H](O)[C@H]1O)C3 [Form 2, Rebaudioside A]",Intermediate,solubility ([1]; listed as anhydrous form): up to 30%
–,–,–,–,"C=C1C[C@@]23CC[C@H]4[C@@](C)(CCC[C@@]4(C)C(=O)O[C@@H]4O[C@H](CO)[C@@H](O)[C@H](O)[C@H]4O)[C@@H]2CC[C@]1(O[C@@H]1O[C@H](CO)[C@@H](O)[C@H](O[C@@H]2O[C@H](CO)[C@@H](O)[C@H](O)[C@H]2O)[C@H]1O[C@@H]1O[C@H](CO)[C@@H](O)[C@H](O)[C@H]1O)C3 [Form 3, Rebaudioside A]",High,Rate of dissolution in H2O at 25° C. ([2]; in 5 minutes): > 30%
–,–,–,–,"C=C1C[C@@]23CC[C@H]4[C@@](C)(CCC[C@@]4(C)C(=O)O[C@@H]4O[C@H](CO)[C@@H](O)[C@H](O)[C@H]4O)[C@@H]2CC[C@]1(O[C@@H]1O[C@H](CO)[C@@H](O)[C@H](O[C@@H]2O[C@H](CO)[C@@H](O)[C@H](O)[C@H]2O)[C@H]1O[C@@H]1O[C@H](CO)[C@@H](O)[C@H](O)[C@H]1O)C3 [Form 4, Rebaudioside A]",High,Rate of dissolution in H2O at 25° C. ([2]; in 5 minutes): > 35%
Clear solution,Slightly cloudy,Cloudy solution,Undissolved matter,"C=C1C[C@@]23CC[C@H]4[C@@](C)(CCC[C@@]4(C)C(=O)O[C@@H]4O[C@H](CO)[C@@H](O)[C@H](O)[C@H]4O)[C@@H]2CC[C@]1(O[C@@H]1O[C@H](CO)[C@@H](O)[C@H](O[C@@H]2O[C@H](CO)[C@@H](O)[C@H](O)[C@H]2O)[C@H]1O[C@@H]1O[C@H](CO)[C@@H](O)[C@H](O)[C@H]1O)C3 [Sample #1, Rebaudioside A]",–,–
Clear solution,Clear solution,Slightly cloudy,Cloudy solution,"C=C1C[C@@]23CC[C@H]4[C@@](C)(CCC[C@@]4(C)C(=O)O[C@@H]4O[C@H](CO)[C@@H](O)[C@H](O)[C@H]4O)[C@@H]2CC[C@]1(O[C@@H]1O[C@H](CO)[C@@H](O)[C@H](O[C@@H]2O[C@H](CO)[C@@H](O)[C@H](O)[C@H]2O)[C@H]1O[C@@H]1O[C@H](CO)[C@@H](O)[C@H](O)[C@H]1O)C3 [Sample #2, Rebaudioside A]",–,–
Clear solution,Clear solution,Clear solution,Clear solution,"C=C1C[C@@]23CC[C@H]4[C@@](C)(CCC[C@@]4(C)C(=O)O[C@@H]4O[C@H](CO)[C@@H](O)[C@H](O)[C@H]4O)[C@@H]2CC[C@]1(O[C@@H]1O[C@H](CO)[C@@H](O)[C@H](O[C@@H]2O[C@H](CO)[C@@H](O)[C@H](O)[C@H]2O)[C@H]1O[C@@H]1O[C@H](CO)[C@@H](O)[C@H](O)[C@H]1O)C3 [Sample #3, Rebaudioside A]",–,Observation (solubility) ([3]; at 40% in water): Slightly cloudy
–,–,–,–,C=C1C[C@@]23CC[C@H]4[C@@](C)(CCC[C@@]4(C)C(=O)O[C@@H]4O[C@H](CO)[C@@H](O)[C@H](O)[C@H]4O)[C@@H]2CC[C@]1(O[C@@H]1O[C@H](CO)[C@@H](O)[C@H](O[C@@H]2O[C@H](CO)[C@@H](O)[C@H](O)[C@H]2O)[C@H]1O[C@@H]1O[C@H](CO)[C@@H](O)[C@H](O)[C@H]1O)C3 [highly soluble amorphous form of rebaudioside A],–,solubility in water [4]: greater than 30%
–,–,–,–,C=C1C[C@@]23CC[C@H]4[C@@](C)(CCC[C@@]4(C)C(=O)O[C@@H]4O[C@H](CO)[C@@H](O)[C@H](O)[C@H]4O)[C@@H]2CC[C@]1(O[C@@H]1O[C@H](CO)[C@@H](O)[C@H](O[C@@H]2O[C@H](CO)[C@@H](O)[C@H](O)[C@H]2O)[C@H]1O[C@@H]1O[C@H](CO)[C@@H](O)[C@H](O)[C@H]1O)C3 [rebaudioside A],–,solubility in water [4]: 0.6%
